{"source": "patent EP0184291B1", "about": "“Polyether antibiotic A80190” (ELI LILLY AND COMPANY, priority 1984, dated 1986)", "key": {"pKa determination": {"experiment": "pKa determination", "assay_type": "physicochemical", "settings": "66% aqueous dimethylformamide; free acid form", "text": "Antibiotic A80190 has been assigned structure 1 based on X-ray crystallographic studies."}, "Bacillus subtilis": {"system": "Bacillus subtilis", "experiment": "Disc-diffusion method", "assay_type": "cell-based", "settings": "6-mm pads dipped in 1 mg of compound per ml, read-out: Zone of Inhibition (mm diameter)", "experimental": "(§1) The inhibitory activity of A80190 is illustrated in Table VI. Activity was measured by the conventional disc-diffusion method (6-mm pads were dipped in solutions containing 1 mg of compound per ml of solution; pads were placed on agar plates seeded with test organism)."}, "Candida albicans": {"system": "Candida albicans", "experiment": "Disc-diffusion method", "assay_type": "cell-based", "settings": "6-mm pads dipped in 1 mg of compound per ml, read-out: Zone of Inhibition (mm diameter)", "experimental": "as §1"}, "Micrococcus luteus": {"system": "Micrococcus luteus", "experiment": "Disc-diffusion method", "assay_type": "cell-based", "settings": "6-mm pads dipped in 1 mg of compound per ml, read-out: Zone of Inhibition (mm diameter)", "experimental": "as §1"}, "Mycobacterium avium": {"system": "Mycobacterium avium", "experiment": "Disc-diffusion method", "assay_type": "cell-based", "settings": "6-mm pads dipped in 1 mg of compound per ml, read-out: Zone of Inhibition (mm diameter)", "experimental": "as §1"}, "Neurospora crassa": {"system": "Neurospora crassa", "experiment": "Disc-diffusion method", "assay_type": "cell-based", "settings": "6-mm pads dipped in 1 mg of compound per ml, read-out: Zone of Inhibition (mm diameter)", "experimental": "as §1"}, "[1]": {"system": "Saccharomyces pastorianus", "experiment": "Disc-diffusion method", "assay_type": "cell-based", "settings": "6-mm pads dipped in 1 mg of compound per ml, read-out: Zone of Inhibition (mm diameter)", "experimental": "as §1"}, "Staphylococcus aureus": {"system": "Staphylococcus aureus", "experiment": "Disc-diffusion method", "assay_type": "cell-based", "settings": "6-mm pads dipped in 1 mg of compound per ml, read-out: Zone of Inhibition (mm diameter)", "experimental": "as §1"}, "[2]": {"system": "Clostridium perfringens 81", "experiment": "microbe, parasite or virus in culture", "assay_type": "cell-based", "settings": "Clostridium perfringens, 81, 24 h"}, "Eimeria tenella": {"system": "Eimeria tenella", "experiment": "In vitro tissue culture anticoccidial screen", "assay_type": "cell-based", "settings": "Concentration 5 µg/ml", "text": "Anticoccidial activity is an important property of the A80190 compounds. Table VIII summarizes the results of an in vitro tissue culture screen of A-80190 compounds vs. Eimeria tenella."}, "[3]": {"system": "volatile-fatty-acid (VFA) concentrations", "experiment": "Ruminant feed-utilization efficiency test (VFA in flasks, method of U.S. Patent 3,794,732)", "design": "species or system ruminants", "settings": "ratio treated flasks to control flasks", "text": "The efficiency of feed use can be monitored by observing the production and concentration of propionate compounds in the rumen using the method described by Arthur P. Raun in U.S. Patent 3,794,732 (see especially Example 5)."}, "Treponema hyodysenteriae": {"system": "Treponema hyodysenteriae", "experiment": "Growth inhibition, swine dysentery agent", "assay_type": "cell-based", "settings": "Brachyspira hyodysenteriae; read-out: inhibits the growth at levels as low as", "text": "In another aspect the A80190 compounds are useful in the treatment of swine dysentery. A80190 inhibits the growth of Treponema hyodysenteriae, a causative agent of swine dysentery, at levels as low as 0.39 mcg/ml. A preferred method of administration to swine is by incorporation of an appropriate amount of an A80190 compound into the feed ration or drinking water. An appropriate amount will relate to whether the treatment is to prevent or to cure infection. Usually, a lower concentration of active compound is needed to prevent infection than is required for to eliminate infection in animals already afflicted. In general, amounts in the range of from about 20 to about 100 grams of A80190 compound per ton of feed are effective to prevent infection. Amounts in the range of from about 100 to about 500 g of A80190 compound per ton of feed are recommended for treating swine suffering from dysentery. These amounts provide from about 1 to about 5 mg/kg of body weight per day (prophylactic treatment) or from about 5 to about 25 mg/kg of body weight per day (treatment of infected animal). When added to the drinking water, amounts of from about 0.04 to about 0.2 g (prophylactic) or from about 0.2 to about 1 g (therapeutic) of A80190 compound per gallon of water are recommended."}, "Mexican bean beetle": {"system": "Mexican bean beetle", "experiment": "Insecticidal activity", "assay_type": "in vivo", "settings": "Epilachna varivestis; read-out: active at levels as low as", "text": "(§2) The A80190 compounds are also useful as insecticides and acaricides. For example, A80190 is active against the following insects as levels as low as the level indicated in parenthesis: mosquito larvae (<50 ppm), blowfly larvae (35 ppm), adult housefly (35 ppm), and Mexican bean beetle and southern armyworm (<100 ppm). A80190 is also active against mites such as two-spotted spider mite when applied at a rate as low as 25 ppm."}, "adult housefly": {"system": "adult housefly", "experiment": "Insecticidal activity", "assay_type": "in vivo", "settings": "Musca domestica; read-out: active at levels as low as", "text": "as §2"}, "blowfly larvae": {"system": "blowfly larvae", "experiment": "Insecticidal activity", "assay_type": "in vivo", "settings": "read-out: active at levels as low as", "text": "as §2"}, "mosquito larvae": {"system": "mosquito larvae", "experiment": "Insecticidal activity", "assay_type": "in vivo", "settings": "read-out: active at levels as low as", "text": "as §2"}, "southern armyworm": {"system": "southern armyworm", "experiment": "Insecticidal activity", "assay_type": "in vivo", "settings": "Spodoptera eridania; read-out: active at levels as low as", "text": "as §2"}, "two-spotted spider mite": {"system": "two-spotted spider mite", "experiment": "Acaricidal activity", "assay_type": "in vivo", "settings": "Tetranychus urticae; read-out: active when applied at a rate as low as", "text": "as §2"}, "crabgrass": {"system": "crabgrass", "experiment": "Herbicidal activity", "assay_type": "in vivo", "settings": "2 lb/acre (200 gpa), either pre-emergence or post-emergence", "text": "(§3) In another aspect, the A80190 compounds have herbicidal activity. For example, A80190 is active against crabgrass, mustard and pigweed at 2 lb/acre (200 gpa) either pre-emergence or post-emergence."}, "mustard": {"system": "mustard", "experiment": "Herbicidal activity", "assay_type": "in vivo", "settings": "2 lb/acre (200 gpa), either pre-emergence or post-emergence", "text": "as §3"}, "pigweed": {"system": "pigweed", "experiment": "Herbicidal activity", "assay_type": "in vivo", "settings": "2 lb/acre (200 gpa), either pre-emergence or post-emergence", "text": "as §3"}, "[4]": {"experiment": "Ion-transport (ionophore) test"}, "[5]": {"system": "Eimeria acervulina (Lilly strain 59), Eimeria maxima (strain FS-177) and Eimeria tenella (strain FS-155)", "experiment": "Coccidiosis test in broiler chicks, A80190 with nicarbazin (Test 1)", "assay_type": "in vivo", "settings": "Nicarbazin 0 p.p.m. in ration"}}, "note": "Several values for one entry are separate records, joined by “and”; a condition that tells them apart may be missing. Equal entries are not always repeated. Marks after values point to notes of the source that are not given here.", "data": [{"molecule": "CC[C@@H](O)[C@]1(C)C[C@H](C)[C@@](O)([C@H]2C[C@H](C)[C@H]([C@]3(C)C[C@@H](O[C@H]4CC[C@H](OC)[C@@H](C)O4)[C@H]([C@@H]4CC[C@@]5(O[C@H]([C@@H](C)[C@@H](OC)[C@H](C)C(=O)O)[C@H](C)[C@@H](OC)[C@H]5C)O4)O3)O2)O1", "note": "[Example A80190]", "values": [{"measurement": "pKa", "setting": "pKa determination", "result": 6.2}, {"measurement": "zone of inhibition at 1000 µg/mL", "setting": "Bacillus subtilis", "result": 23, "unit": "mm"}, {"measurement": "zone of inhibition at 1000 µg/mL", "setting": "Candida albicans", "result": 14, "unit": "mm"}, {"measurement": "zone of inhibition at 1000 µg/mL", "setting": "Micrococcus luteus", "result": 20, "unit": "mm"}, {"measurement": "zone of inhibition at 1000 µg/mL", "setting": "Mycobacterium avium", "result": 21, "unit": "mm"}, {"measurement": "zone of inhibition at 1000 µg/mL", "setting": "Neurospora crassa", "result": 14, "unit": "mm"}, {"measurement": "zone of inhibition at 1000 µg/mL", "setting": "[1]", "result": 10, "unit": "mm"}, {"measurement": "zone of inhibition at 1000 µg/mL", "setting": "Staphylococcus aureus", "result": 17, "unit": "mm"}, {"measurement": "MIC", "setting": "[2]", "result": "< 0.5", "unit": "µg/mL"}, {"measurement": "Activity vs. Eimeria tenella In Vitro", "setting": "Eimeria tenella", "result": "C^a"}, {"measurement": "Molar % Acetate", "setting": "[3]; Dosage 0.3 mcg/ml", "result": 0.970}, {"measurement": "Molar % Butyrate", "setting": "[3]; Dosage 0.3 mcg/ml", "result": 0.819}, {"measurement": "Molar % Propionate", "setting": "[3]; Dosage 0.3 mcg/ml", "result": "1.220*"}, {"measurement": "Total VFA/ Control VFA mM/L", "setting": "[3]; Dosage 0.3 mcg/ml", "result": 0.967}, {"measurement": "Molar % Acetate", "setting": "[3]; Dosage 1 mcg/ml", "result": "0.926 and 0.986 and 0.892 and 1.016"}, {"measurement": "Molar % Butyrate", "setting": "[3]; Dosage 1 mcg/ml", "result": "0.529 and 0.851 and 0.813 and 0.706"}, {"measurement": "Molar % Propionate", "setting": "[3]; Dosage 1 mcg/ml", "result": "1.566* and 1.185* and 1.403* and 1.247*"}, {"measurement": "Total VFA/ Control VFA mM/L", "setting": "[3]; Dosage 1 mcg/ml", "result": "0.913 and 0.916 and 0.887 and 0.857"}, {"measurement": "Molar % Acetate", "setting": "[3]; Dosage 3 mcg/ml", "result": 0.998}, {"measurement": "Molar % Butyrate", "setting": "[3]; Dosage 3 mcg/ml", "result": 0.611}, {"measurement": "Molar % Propionate", "setting": "[3]; Dosage 3 mcg/ml", "result": "1.368*"}, {"measurement": "Total VFA/ Control VFA mM/L", "setting": "[3]; Dosage 3 mcg/ml", "result": 0.963}, {"measurement": "MIC", "setting": "Treponema hyodysenteriae", "result": 0.39, "unit": "µg/mL"}, {"measurement": "minimal effective concentration", "setting": "Mexican bean beetle", "result": "< 100", "unit": "µg/mL"}, {"measurement": "minimal effective concentration", "setting": "adult housefly", "result": 35, "unit": "µg/mL"}, {"measurement": "minimal effective concentration", "setting": "blowfly larvae", "result": 35, "unit": "µg/mL"}, {"measurement": "minimal effective concentration", "setting": "mosquito larvae", "result": "< 50", "unit": "µg/mL"}, {"measurement": "minimal effective concentration", "setting": "southern armyworm", "result": "< 100", "unit": "µg/mL"}, {"measurement": "minimal effective concentration", "setting": "two-spotted spider mite", "result": 25, "unit": "µg/mL"}, {"measurement": "herbicidal activity", "setting": "crabgrass", "result": "active"}, {"measurement": "herbicidal activity", "setting": "mustard", "result": "active"}, {"measurement": "herbicidal activity", "setting": "pigweed", "result": "active"}, {"measurement": "ionophorous effect, comparison of cations", "setting": "[4]; 0.2 µg/ml concentration", "result": "even greater ionophorous effect with Cs⁺ than with Na⁺"}, {"measurement": "ionophorous activity", "setting": "[4]; 0.5 µg/ml concentration", "result": "showed ionophorous activity"}, {"measurement": "ionophorous activity, comparison of cations", "setting": "[4]; 0.5 µg/ml concentration", "result": "its activity with Na⁺, K⁺ and Rb⁺ was better than that with Cs⁺ or Li⁺"}, {"measurement": "CECAL LESION SCORES", "setting": "[5]; A80190 4 p.p.m.", "result": 2.63}, {"measurement": "INTESTINAL LESION SCORES", "setting": "[5]; A80190 4 p.p.m.", "result": 8.63}, {"measurement": "WEIGHT GAIN", "setting": "[5]; A80190 4 p.p.m.", "result": 236, "unit": "grams/per chicken"}, {"measurement": "CECAL LESION SCORES", "setting": "[5]; A80190 8 p.p.m.", "result": 1.75}, {"measurement": "INTESTINAL LESION SCORES", "setting": "[5]; A80190 8 p.p.m.", "result": 5.94}, {"measurement": "WEIGHT GAIN", "setting": "[5]; A80190 8 p.p.m.", "result": 265, "unit": "grams/per chicken"}, {"measurement": "CECAL LESION SCORES", "setting": "[5]; A80190 12 p.p.m.", "result": 1.19}, {"measurement": "INTESTINAL LESION SCORES", "setting": "[5]; A80190 12 p.p.m.", "result": 3.50}, {"measurement": "WEIGHT GAIN", "setting": "[5]; A80190 12 p.p.m.", "result": 251, "unit": "grams/per chicken"}, {"measurement": "CECAL LESION SCORES", "setting": "[5]; A80190 16 p.p.m.", "result": 0.19}, {"measurement": "INTESTINAL LESION SCORES", "setting": "[5]; A80190 16 p.p.m.", "result": 1.19}, {"measurement": "WEIGHT GAIN", "setting": "[5]; A80190 16 p.p.m.", "result": 272, "unit": "grams/per chicken"}, {"measurement": "CECAL LESION SCORES", "setting": "[5]; A80190 20 p.p.m.", "result": 0.0}, {"measurement": "INTESTINAL LESION SCORES", "setting": "[5]; A80190 20 p.p.m.", "result": 0.0}, {"measurement": "WEIGHT GAIN", "setting": "[5]; A80190 20 p.p.m.", "result": 261, "unit": "grams/per chicken"}]}]}
